Reference: US20160114044A1, “COMPOSITON BASED ON BIOCOMPATIBLE ANIONIC POLYMER FOR DRUG DELIVERY AND PREPARING METHOD THEREOF” (RESEARCH & BUSINESS FOUNDATION SUNGKYUNKWAN UNIVERSITY, priority 2014, published 2016)

Key:
[1] = Stability and size of micro-dispersions in distilled water; type: physicochemical; conditions: dispersed in water without γ-PGA
Protocol: The particle size of the redispersed solutions of γ-PGA/Ptx and γ-PGA/Imq was measured using Electrophoretic Light Scattering-ELS Z (Otsuka Electronics, Osaka, Japan). The stability of the dispersion was assessed by observing the samples for aggregation and phase separation after storing the sample at 4° C. for 1 week after dispersion in distilled water. The morphology of theses micro-dispersions were observed through FE-SEM (JSM-7000F, JEOL Ltd. Japan) and FE-TEM (JEM-2100F HR, JEOL Ltd. Japan). For the SEM sample preparation, the lyophilized and redispersed suspension was deposited on a silicon wafer plate and vacuum-dried to remove water, followed by platinum coating using a Technics Hummer II sputter coater at 30 mA for 90 s. For TEM sample preparation, a drop (2 μL) of redispersed suspension was placed onto a formvar/carbon coated copper grid, followed by vacuum-drying to evaporate water.
Distinct monodisperse peaks for γ-PGA/Imq and γ-PGA/Ptx/Imq were observed, indicating uniform size distribution (FIG. 3). In case of γ-PGA/Ptx, two peaks were observed, which might be due to a high aspect ratio of the paclitaxel crystal.

[2] = In-vitro viability assay (MTS); type: cell-based; conditions: mouse, bone marrow derived dendritic cells (BMDCs), after 48 h, normalized to untreated cells, read-out: cell viability / proliferation of BMDCs
Protocol: BMDCs were isolated from mouse bone marrow as reported previously. MTS assay for analysis of mitochondrial activity was used as a measure of cell viability. 1×10^4 cells in 100 μL media were seeded per well in a 96 well plate (Corning Costar, Cambridge, Mass., USA). 100 μl of sample dispersion was added to cell culture media and incubated for 24 h and 48 h at 37° C. and 5% CO2. After the incubation, 20 μL of MTS solution-Cell Titer 96 Aqueous One Solution kit (Promega, Madison, Wis., USA) was added to each well and incubated for 2 h. The absorbance of the samples was measured at 490 nm (VersaMax, Molecular Devices, Sunnyvale, Calif., USA) and normalized with respect to absorbance of untreated cells.

| dispersion state in water without γ-PGA [1] | SMILES | viability at 48 h [2] [%] |
| --- | --- | --- |
| aggregation and precipitation | CC(=O)O[C@H]1C(=O)[C@@]2(C)[C@H]([C@H](OC(=O)c3ccccc3)[C@]3(O)C[C@H](OC(=O)[C@H](O)[C@@H](NC(=O)c4ccccc4)c4ccccc4)C(C)=C1C3(C)C)[C@]1(OC(C)=O)CO[C@@H]1C[C@@H]2O [paclitaxel] |  |
| aggregation and precipitation | CC(C)Cn1cnc2c(N)nc3ccccc3c21 [imiquimod] | 250 |
